{"source": "patent US7001905B2", "about": "“Substituted diarylamines as MEK inhibitors” (Warner-Lambert Company, priority 2000, dated 2006)", "note": "pIC50: −log10 of the molar value."}
{"biological_target": "T1, MEK (Homo sapiens, UniProt Q02750)", "T1 construct": "no tag is given for the 2D mutant", "T1 sequence (Q02750 whole entry S218D/S222D, form open, the tested form may be a part)": "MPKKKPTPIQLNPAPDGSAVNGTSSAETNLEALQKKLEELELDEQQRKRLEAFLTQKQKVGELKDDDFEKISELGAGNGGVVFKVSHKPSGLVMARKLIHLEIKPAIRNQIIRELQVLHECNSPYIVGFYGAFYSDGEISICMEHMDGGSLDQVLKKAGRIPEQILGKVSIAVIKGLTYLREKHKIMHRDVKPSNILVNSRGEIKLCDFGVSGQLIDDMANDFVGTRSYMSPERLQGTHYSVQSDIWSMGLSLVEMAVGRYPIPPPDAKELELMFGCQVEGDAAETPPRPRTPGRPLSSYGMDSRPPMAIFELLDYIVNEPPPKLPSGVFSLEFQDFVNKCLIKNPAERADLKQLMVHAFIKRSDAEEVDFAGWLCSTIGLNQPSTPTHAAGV", "assay": "in vitro MEK assay", "assay_type": "biochemical", "details": "not given", "procedure": "(§1) For evaluation of direct MEK activity, 10 μg GST-MEK, is incubated in the presence of absence of test compound with 5 μg of a glutathione S-transferase fusion protein containing p44MAP kinase with a lysine to alanine mutation at position 71 (GST-MAPK-KA). This mutation eliminates kinase activity of MAPK, so only kinase activity attributed to the added MEK remains. Incubations are 15 minutes at 30° C. in a final volume of 50 μL containing 50 mM Tris (pH 7.5), […], 2, μM EGTA, and 10 μM [γ-^32P]ATP. The reaction is stopped by addition of Laemmli SDS sample buffer. Phosphorylated GST-MAPK-KA is resolved by electrophoresis on a 10% polyacrylamide gel. Radioactivity incorporated into GST-MAPK-KA is determined by autoradiography, and subsequent scintillation counting of excised bands.\n(§2) Alternatively, an artificially activated MEK containing serine to glutamate mutations at positions 218 and 222 (GST-MEK-2E) is used. When these two sites are phosphorylated, MEK activity is increased. Phosphorylation of these sites can be mimicked by mutation of the serine residues to glutamate. For this assay, 5 μg GST-MEK-2E is incubated with 5 μg GST-MAPK-KA for 15 minutes at 30° C. in the same reaction buffer as described above. Reactions are terminated and analyzed as above."}
{"smiles": "Cc1cc(I)ccc1Nc1c(C(=O)O)cc(C(=O)NCCc2ccccn2)c(F)c1F", "note": "[Example 67, 4,5-Difluoro-6-(4-iodo-2-methyl-phenylamino)-N-(2-pyridin-2-yl-ethyl)-isophthalamic acid]", "pIC50": 5.48}
{"smiles": "Cc1cc(I)ccc1Nc1c(C(=O)O)cc(C(=O)NCCN2CCOCC2)c(F)c1F", "note": "[Example 79, 4,5-Difluoro-6-(4-iodo-2-methyl-phenylamino)-N-(2-morpholin-4-yl-ethyl)-isophthalamic acid]", "pIC50": 5.82}
{"biological_target": "T1, MEK", "assay": "in vitro MEK assay", "assay_type": "biochemical", "details": "@ 1 μM", "procedure": "as §1, §2", "units": {"in vitro MEK assay: % inhibition @ 1 μM": "%"}}
{"smiles": "Cc1cc(I)ccc1Nc1c(C(=O)O)cc(C(=O)Nc2cccnc2)c(F)c1F", "note": "[Example 74, 4,5-Difluoro-6-(4-iodo-2-methyl-phenylamino)-N-pyridin-3-yl-isophthalamic acid]", "in vitro MEK assay: % inhibition @ 1 μM": 50}
{"smiles": "Cc1cc(I)ccc1N1COC(=O)c2cc(C(=O)NCCN3CCCCC3)c(F)c(F)c21", "note": "[Example 10, 7,8-Difluoro-1-(4-iodo-2-methyl-phenyl)-4-oxo-1,4-dihydro-2H-3,1-benzoxazine-6-carboxylic acid (2-piperidin-1-yl-ethyl)-amide]", "in vitro MEK assay: % inhibition @ 1 μM": 44}
{"smiles": "CCOc1ccc2nc(NC(=O)c3cc4c(c(F)c3F)N(c3ccc(I)cc3C)COC4=O)sc2c1", "note": "[Example 28, 7,8-Difluoro-1-(4-iodo-2-methyl-phenyl)-4-oxo-1,4-dihydro-2H-3,1-benzoxazine-6-carboxylic acid (6-ethoxy-benzothiazol-2-yl)-amide]", "in vitro MEK assay: % inhibition @ 1 μM": 9}
{"smiles": "Cc1cc(I)ccc1Nc1c(C(=O)O)cc(C(=O)NCCc2ccccn2)c(F)c1F", "note": "[Example 67, 4,5-Difluoro-6-(4-iodo-2-methyl-phenylamino)-N-(2-pyridin-2-yl-ethyl)-isophthalamic acid]", "in vitro MEK assay: % inhibition @ 1 μM": 81}
{"smiles": "CCc1nnc(NC(=O)c2cc3c(c(F)c2F)N(c2ccc(I)cc2C)COC3=O)s1", "note": "[Example 26, 7,8-Difluoro-1-(4-iodo-2-methyl-phenyl)-4-oxo-1,4-dihydro-2H-3,1-benzoxazine-6-carboxylic acid (5-ethyl-1,3,4-thiadiazol-2-yl)-amide]", "in vitro MEK assay: % inhibition @ 1 μM": 20}
{"smiles": "Cc1cc(I)ccc1N1COC(=O)c2cc(C(=O)NC3CCCC[C@@H]3O)c(F)c(F)c21", "note": "(stereo in doubt) [Example 60, 7,8-difluoro-1-(4-iodo-2-methyl-phenyl)-4-oxo-1,4-dihydro-2H-3,1-benzoxazine-6-carboxylic acid ((S)-2-hydroxy-cyclohexyl)-amide]", "in vitro MEK assay: % inhibition @ 1 μM": 30}
{"smiles": "Cc1cc(I)ccc1N1COC(=O)c2cc(C(=O)Nc3nnc(S)s3)c(F)c(F)c21", "note": "[Example 27, 7,8-Difluoro-1-(4-iodo-2-methyl-phenyl)-4-oxo-1,4-dihydro-2H-3,1-benzoxazine-6-carboxylic acid (5-mercapto-1,3,4-thiadiazol-2-yl)-amide]", "in vitro MEK assay: % inhibition @ 1 μM": 27}
{"smiles": "COc1ccc(N(C)C(=O)c2cc(C(=O)O)c(Nc3ccc(I)cc3C)c(F)c2F)cc1", "note": "[Example 94, 4,5-Difluoro-6-(4-iodo-2-methyl-phenylamino)-N-(4-methoxy-phenyl)-N-methyl-isophthalamic acid]", "in vitro MEK assay: % inhibition @ 1 μM": 92}
{"smiles": "Cc1cc(I)ccc1Nc1c(C(=O)O)cc(C(=O)NCCN2CCCCC2)c(F)c1F", "note": "[Example 102]", "in vitro MEK assay: % inhibition @ 1 μM": 25}
{"smiles": "Cc1cc(I)ccc1N1COC(=O)c2cc(C(=O)N3CCCCC3CO)c(F)c(F)c21", "note": "(stereo not shown) [Example 33, 7,8-Difluoro-6-(2-hydroxymethyl-piperidine-1-carbonyl)-1-(4-iodo-2-methyl-phenyl)-1,2-dihydro-3,1-benzoxazin-4-one]", "in vitro MEK assay: % inhibition @ 1 μM": 79}
{"smiles": "Cc1cc(I)ccc1N1COC(=O)c2cc(C(=O)N(C)CCO)c(F)c(F)c21", "note": "[Example 20, 7,8-Difluoro-1-(4-iodo-2-methyl-phenyl)-4-oxo-1,4-dihydro-2H-3,1-benzoxazine-6-carboxylic acid (2-hydroxy-ethyl)-methyl-amide]", "in vitro MEK assay: % inhibition @ 1 μM": 41}
{"smiles": "COc1ccc2c(CCNC(=O)c3cc4c(c(F)c3F)N(c3ccc(I)cc3C)COC4=O)c[nH]c2c1", "note": "[Example 48, 7,8-Difluoro-1-(4-iodo-2-methyl-phenyl)-4-oxo-1,4-dihydro-2H-3,1-benzoxazine-6-carboxylic acid [2-(6-methoxy-1H-indol-3-yl)-ethyl]-amide]", "in vitro MEK assay: % inhibition @ 1 μM": 12}
{"smiles": "Cc1cc(I)ccc1N1COC(=O)c2cc(C(=O)N3CCOCC3)c(F)c(F)c21", "note": "[Example 51, 7,8-Difluoro-1-(4-iodo-2-methyl-phenyl)-6-(morpholine-4-carbonyl)-1,2-dihydro-3,1-benzoxazin-4-one]", "in vitro MEK assay: % inhibition @ 1 μM": 72}
{"smiles": "Cc1cc(I)ccc1Nc1c(C(=O)O)cc(C(=O)NCCC2CCCN2C)c(F)c1F", "note": "(stereo not shown) [Example 66, 4,5-Difluoro-6-(4-iodo-2-methyl-phenylamino)-N-[2-(1-methyl-pyrrolidin-2-yl)-ethyl]-isophthalamic acid]", "in vitro MEK assay: % inhibition @ 1 μM": 14}
{"smiles": "Cc1cc(I)ccc1N1COC(=O)c2cc(C(=O)NCCOCCO)c(F)c(F)c21", "note": "[Example 18, 7,8-Difluoro-1-(4-iodo-2-methyl-phenyl)-4-1,4-dihydro-2H-3,1-benzoxazine-6-carboxylic acid [2-(2-hydroxy-ethoxy)-ethyl]-amide]", "in vitro MEK assay: % inhibition @ 1 μM": 43}
{"smiles": "Cc1cc(I)ccc1N1COC(=O)c2cc(C(=O)Nc3cccnc3)c(F)c(F)c21", "note": "[Example 37, 7,8-Difluoro-1-(4-iodo-2-methyl-phenyl)-4-oxo-1,4-dihydro-2H-3,1-benzoxazine-6-carboxylic acid pyridin-3-ylamide]", "in vitro MEK assay: % inhibition @ 1 μM": 20}
{"smiles": "Cc1cc(I)ccc1N1COC(=O)c2cc(C(=O)N(C)CCc3c[nH]c4ccccc34)c(F)c(F)c21", "note": "[Example 55, 7,8-Difluoro-1-(4-iodo-2-methyl-phenyl)-4-oxo-1,4-dihydro-2H-3,1-benzoxazine-6-carboxylic acid [2-(1H-indol-3-yl)ethyl]-methyl-amide]", "in vitro MEK assay: % inhibition @ 1 μM": 41}
{"smiles": "Cc1cc(I)ccc1Nc1c(C(=O)O)cc(C(=O)Nc2ccc(N(C)C)cc2)c(F)c1F", "note": "[Example 92, N-(4-Dimethylamino-phenyl)-4,5-difluoro-6-(iodo-methyl-phenylamino)-isophthalamic acid]", "in vitro MEK assay: % inhibition @ 1 μM": 80}
{"smiles": "Cc1cc(I)ccc1N1COC(=O)c2cc(C(=O)Nc3ccc(N(C)C)cc3)c(F)c(F)c21", "note": "[Example 53, 7,8-Difluoro-1-(4-iodo-2-methyl-phenyl)-4-oxo-1,4-dihydro-2H-3,1-benzoxazine-6-carboxylic acid (4-dimethylamino-phenyl)amide]", "in vitro MEK assay: % inhibition @ 1 μM": 61}
{"smiles": "Cc1cc(I)ccc1N1COC(=O)c2cc(C(=O)NCCCN3CCCC3=O)c(F)c(F)c21", "note": "[Example 12, 7,8-Difluoro-1-(4-iodo-2-methyl-phenyl)-4-oxo-1,4-dihydro-2H-3,1-benzoxazine-6-carboxylic acid [3-(2-oxo-pyrrolidin-1-y)-propyl]-amide]", "in vitro MEK assay: % inhibition @ 1 μM": 21}
{"smiles": "CCN1CCN(C(=O)c2cc(C(=O)O)c(Nc3ccc(I)cc3C)c(F)c2F)CC1", "note": "[Example 93, 5-[1-(4-Ethyl-piperazin-1-yl)-methanoyl]-3,4-difluoro-2-(4-iodo-2-methyl-phenylamino)-benzoic acid]", "in vitro MEK assay: % inhibition @ 1 μM": 70}
{"smiles": "COC[C@@H]1CCCN1C(=O)c1cc2c(c(F)c1F)N(c1ccc(I)cc1C)COC2=O", "note": "[Example 9, 7,8-Difluoro-1-(4-iodo-2-methyl-phenyl)-6-((S)-2-methoxymethyl-pyrrolidine-1-carbonyl)-1,2-dihydro-3,1-benzoxazin-4-one]", "in vitro MEK assay: % inhibition @ 1 μM": 93}
{"smiles": "Cc1cc(I)ccc1N1COC(=O)c2cc(C(=O)Nc3nncs3)c(F)c(F)c21", "note": "[Example 21, 7,8-Difluoro-1-(4-iodo-2-methyl-phenyl)-oxo-1,4-dihydro-2H-3,1-benzoxazine-6-carboxylic acid 1,3,4-thiadiazol-2-ylamide]", "in vitro MEK assay: % inhibition @ 1 μM": 31}
{"smiles": "Cc1cc(I)ccc1N1COC(=O)c2cc(C(=O)N(C)C3CCN(C)CC3)c(F)c(F)c21", "note": "[Example 16]", "in vitro MEK assay: % inhibition @ 1 μM": 0}
{"smiles": "Cc1cc(I)ccc1N1COC(=O)c2cc(C(=O)N(CCO)CCO)c(F)c(F)c21", "note": "[Example 49, 7,8-Difluoro-1-(4-iodo-2-methyl-phenyl)-4-oxo-1,4-dihydro-2H-3,1-benzoxazine-6-carboxylic acid bis-(2-hydroxy-ethyl)-amide]", "in vitro MEK assay: % inhibition @ 1 μM": 50}
{"smiles": "Cc1cc(I)ccc1Nc1c(C(=O)O)cc(C(=O)NCCN2CCOCC2)c(F)c1F", "note": "[Example 79, 4,5-Difluoro-6-(4-iodo-2-methyl-phenylamino)-N-(2-morpholin-4-yl-ethyl)-isophthalamic acid]", "in vitro MEK assay: % inhibition @ 1 μM": 54}
{"smiles": "Cc1cc(I)ccc1N1COC(=O)c2cc(C(=O)Nc3ccc(Cl)nc3)c(F)c(F)c21", "note": "[Example 45]", "in vitro MEK assay: % inhibition @ 1 μM": 62}
{"smiles": "Cc1cc(I)ccc1N1COC(=O)c2cc(C(=O)NCCC3CCCN3C)c(F)c(F)c21", "note": "(stereo not shown) [Example 19, 7,8-Difluoro-1-(4-iodo-2-methyl-phenyl)-4-oxo-1,4-dihydro-2H-3,1-benzoxazine-6-carboxylic acid [2-(1-methyl-pyrrolidin-2-yl)ethyl]-amide]", "in vitro MEK assay: % inhibition @ 1 μM": 28}
{"smiles": "Cc1cc(I)ccc1N1COC(=O)c2cc(C(=O)Nc3nccs3)c(F)c(F)c21", "note": "[Example 31, 7,8-Difluoro-1-(4-iodo-2-methyl-phenul)-4-oxo-1,4-dihydro-2H-3,1-benzoxazine-6-carboxylic acid thiazol-2-ylamide]", "in vitro MEK assay: % inhibition @ 1 μM": 32}
